From PubChem BioAssay (NCI)
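Each compound was tested at five concentrations against cells in 96-well plates for 48 hours. Here, GI50 denotes the concentration required for 50% inhibition of growth. TGI: total growth inhibition.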

Key:
Assay in all cases: inhibition of tumour cell growth, NCI panel, 48 h
[1] = tested on: 786-0 renal
[2] = tested on: A498 renal
[3] = tested on: A549 NSCLC
[4] = tested on: ACHN renal
[5] = tested on: BT-549 breast
[6] = tested on: CAKI-1 renal
[7] = tested on: CCRF-CEM leukemia
[8] = tested on: COLO 205 colon
[9] = tested on: DU-145 prostate
[10] = tested on: EKVX NSCLC
[11] = tested on: HCC-2998 colon
[12] = tested on: HCT-116 colon
[13] = tested on: HCT-15 colon
[14] = tested on: HL-60(TB) leukemia
[15] = tested on: HOP-62 NSCLC
[16] = tested on: HOP-92 NSCLC
[17] = tested on: HS 578T breast
[18] = tested on: HT29 colon
[19] = tested on: IGROV1 ovarian
[20] = tested on: K-562 leukemia
[21] = tested on: KM12 colon
[22] = tested on: LOX IMVI melanoma
[23] = tested on: MALME-3M melanoma
[24] = tested on: MCF7 breast
[25] = tested on: MDA-MB-231 breast
[26] = tested on: MDA-MB-435
[27] = tested on: MOLT-4 leukemia
[28] = tested on: NCI-H23 lung
[29] = tested on: NCI-H460 lung
[30] = tested on: NCI-H522 lung
[31] = tested on: NCI/ADR-RES ovarian
[32] = tested on: OVCAR-3 ovarian
[33] = tested on: OVCAR-4 ovarian
[34] = tested on: OVCAR-5 ovarian
[35] = tested on: OVCAR-8 ovarian
[36] = tested on: PC-3 prostate
[37] = tested on: RPMI-8226 leukemia
[38] = tested on: RXF 393 renal
[39] = tested on: SF-268 CNS
[40] = tested on: SF-295 CNS
[41] = tested on: SF-539 CNS
[42] = tested on: SK-MEL-2 melanoma
[43] = tested on: SK-MEL-28 melanoma
[44] = tested on: SK-MEL-5 melanoma
[45] = tested on: SK-OV-3 ovarian
[46] = tested on: SN12C renal
[47] = tested on: SNB-19 CNS
[48] = tested on: SNB-75 CNS
[49] = tested on: SR leukemia
[50] = tested on: T-47D breast
[51] = tested on: TK-10 renal
[52] = tested on: U251 CNS
[53] = tested on: UACC-257 melanoma
[54] = tested on: UACC-62 melanoma
[55] = tested on: UO-31 renal
[56] = tested on: M14 melanoma
[57] = tested on: NCI-H226 lung
[58] = tested on: SW-620 colon

`CCOC(=O)c1ccc2c(c1)nc(-c1ccc(Cl)cc1)n2-c1cc(C(C)(C)C)[nH]n1` was tested, and the GI50 [1] was 3.17 µM, the TGI [1] was > 100 µM and the GI50 [2] was 2.19 µM. The TGI [2] was 6.51 µM, the GI50 [3] was 3.13 µM and the TGI [3] was > 100 µM. For the same molecule, the GI50 [4] was 3.28 µM, the TGI [4] was 10.1 µM and the GI50 [5] was 2.88 µM. The TGI [5] was 8.4 µM, the GI50 [6] was 2.77 µM and the TGI [6] was > 100 µM. For the same molecule, the GI50 [7] was 3.06 µM, the TGI [7] was 34.1 µM and the GI50 [8] was 2.23 µM. For the same molecule, the TGI [8] was 4.75 µM, the GI50 [9] was 2.85 µM and the GI50 [10] was 3.02 µM. The TGI [10] was > 100 µM, the GI50 [11] was 3.03 µM and the TGI [11] was 16.2 µM. The GI50 [12] was 3.12 µM, the TGI [12] was 29.9 µM and the GI50 [13] was 3.27 µM. For the same molecule, the TGI [13] was > 100 µM, the GI50 [14] was 3.65 µM and the TGI [14] was 9.2 µM. For the same molecule, the GI50 [15] was 3.69 µM, the TGI [15] was > 100 µM and the GI50 [16] was 1.02 µM. For the same molecule, the TGI [16] was 4.79 µM, the GI50 [17] was 2.76 µM and the TGI [17] was 8.57 µM. For the same molecule, the GI50 [18] was 2.79 µM, the TGI [18] was 7.17 µM and the GI50 [19] was 3.77 µM. The TGI [19] was > 100 µM, the GI50 [20] was 2.72 µM and the TGI [20] was 16.1 µM. For the same molecule, the GI50 [21] was 2.78 µM, the TGI [21] was 14.2 µM and the GI50 [22] was 2.73 µM. For the same molecule, the TGI [22] was 10.8 µM, the GI50 [23] was 2.75 µM and the TGI [23] was 9.18 µM. For the same molecule, the GI50 [24] was 2.78 µM, the TGI [24] was 12.2 µM and the GI50 [25] was 4.2 µM. It also gave a TGI [25] of 40.8 µM, a GI50 [26] of 0.717 µM and a TGI [26] of 7.1 µM. For the same molecule, the GI50 [27] was 3.28 µM, the TGI [27] was 30.4 µM and the GI50 [28] was 2.72 µM. The TGI [28] was > 100 µM, the GI50 [29] was 2.94 µM and the TGI [29] was 8.02 µM. For the same molecule, the GI50 [30] was 2.52 µM, the TGI [30] was 6.66 µM and the GI50 [31] was 2.13 µM. The TGI [31] was 6.65 µM, the GI50 [32] was 2.05 µM and the TGI [32] was 5.65 µM. The GI50 [33] was 3.64 µM, the TGI [33] was > 100 µM and the GI50 [34] was 3.68 µM. The TGI [34] was > 100 µM, the GI50 [35] was 2.55 µM and the TGI [35] was 12.7 µM. The GI50 [36] was 2.82 µM, the TGI [36] was > 100 µM and the GI50 [37] was 2.99 µM. The TGI [37] was 22.9 µM, the GI50 [38] was 1.81 µM and the TGI [38] was 5.87 µM. It also gave a GI50 [39] of 3.13 µM, a TGI [39] of 13.8 µM and a GI50 [40] of 2.62 µM. For the same molecule, the TGI [40] was 11.4 µM, the GI50 [41] was 2.16 µM and the TGI [41] was 4.99 µM. The GI50 [42] was 1.93 µM, the TGI [42] was 4.4 µM and the GI50 [43] was 2.49 µM. It also gave a TGI [43] of 12.2 µM, a GI50 [44] of 1.33 µM and a TGI [44] of 3.39 µM. It also gave a GI50 [45] of 3.43 µM, a TGI [45] of 36.9 µM and a GI50 [46] of 3.33 µM. For the same molecule, the TGI [46] was 40.6 µM, the GI50 [47] was 3.32 µM and the TGI [47] was > 100 µM. For the same molecule, the GI50 [48] was 2.53 µM, the TGI [48] was > 100 µM and the GI50 [49] was 0.635 µM. The TGI [49] was 8.16 µM, the GI50 [50] was 3.78 µM and the TGI [50] was > 100 µM. The GI50 [51] was 3.62 µM, the TGI [51] was > 100 µM and the GI50 [52] was 3.04 µM. For the same molecule, the TGI [52] was > 100 µM, the GI50 [53] was 3.41 µM and the TGI [53] was > 100 µM. For the same molecule, the GI50 [54] was 1.67 µM, the TGI [54] was 4 µM and the GI50 [55] was 2.76 µM. The TGI [55] was 45.7 µM.

With `NC(=O)c1ncn2c1CNC(=O)C2` the TGI [2] was > 100 µM, the TGI [3] was > 100 µM and the TGI [4] was > 100 µM. The TGI [5] was > 100 µM, the TGI [6] was > 100 µM and the TGI [7] was > 100 µM. The TGI [8] was > 100 µM, the TGI [9] was > 100 µM and the TGI [10] was > 100 µM. For the same molecule, the TGI [11] was > 100 µM, the TGI [13] was > 100 µM and the TGI [14] was > 100 µM. The TGI [15] was > 100 µM, the TGI [16] was > 100 µM and the TGI [17] was > 100 µM. For the same molecule, the TGI [18] was > 100 µM, the TGI [19] was > 100 µM and the TGI [20] was > 100 µM. The TGI [21] was > 100 µM, the TGI [56] was > 100 µM and the TGI [23] was > 100 µM. The TGI [24] was > 100 µM, the TGI [25] was > 100 µM and the TGI [26] was > 100 µM. The TGI [27] was > 100 µM, the TGI [57] was > 100 µM and the TGI [28] was > 100 µM. The TGI [29] was > 100 µM, the TGI [30] was > 100 µM and the TGI [31] was > 100 µM. The TGI [32] was > 100 µM, the TGI [33] was > 100 µM and the TGI [34] was > 100 µM. The TGI [35] was > 100 µM, the TGI [36] was > 100 µM and the TGI [38] was > 100 µM. The TGI [39] was > 100 µM, the TGI [40] was > 100 µM and the TGI [41] was > 100 µM. For the same molecule, the TGI [42] was > 100 µM, the TGI [43] was > 100 µM and the TGI [44] was > 100 µM. For the same molecule, the TGI [45] was > 100 µM, the TGI [46] was > 100 µM and the TGI [47] was > 100 µM. For the same molecule, the TGI [48] was > 100 µM, the TGI [49] was > 100 µM and the TGI [58] was > 100 µM. The TGI [50] was > 100 µM, the TGI [51] was > 100 µM and the TGI [52] was > 100 µM. The TGI [53] was > 100 µM, the TGI [54] was > 100 µM and the TGI [55] was > 100 µM.
